SMILES strings stand for the structures.

The text below walks through data of patent US20260146041A1, “PANNEXIN-1 MODULATORS AND METHODS OF TREATING DISORDERS IN WHICH PANNEXIN-1 IS IMPLICATED” (Pannex Therapeutics Inc., priority 2022, published 2026).

Experiment [1] has as its system mice. Particulars: acute; cited from earlier work.
Experiment [2] deals with T1, human PANX1 channels (Homo sapiens, UniProt Q96RD7).
T1 construct: expressed in transfected cells; host or cells: HEK293
The experiment in a line: Whole cell patch clamp assessment of PANX1 blockade on HEK293 cells stably expressing human PANX1 channels. Type of experiment: cell-based. Particulars: n=3. As for the experimental part: The assessment of PANX1 blockade was assessed on HEK293 cells stably expressing human PANX1 channels, as previously described by Xu et al (2012). Briefly, wild type cells were seeded in six-well plates and 12-16 hours later, 60-70% confluent cells were transfected with the plasmid encoding hPANX1 using calcium phosphate. After 48 hours post-transfection, geneticin (G418), 0.8 mg/ml in fresh medium, was added to the cells to select for transfected clones and the medium was changed every other day. Once confluent, cells were transferred into flasks and maintained in medium containing G418 (0.8 mg/ml) for a total of 4 weeks from the transfection date.
To validate those cells as a tool to screen potential PANX1 inhibitors a number of known PANX1 inhibitors were assessed by whole cell patch clamp and the voltage/current diagrams compared to current literature. The pipette solution was 151 mM […], 10 mM HEPES, 10 mM EGTA, 3 mM MgCl2. Cells were maintained in normal extracellular solution (NES: 140 mM NaCl, 5 mM KCl, 2 mM CaCl2, 1 mM MgCl2, 10 mM D-glucose, 10 mM HEPES, pH 7.3). Voltage ramps of 1 s duration between −80 mV and +80 mV were applied at 5 s intervals. Opening of Panx1 channel was induced by hypotonic shock, by replacing the isotonic extracellular solution (310 mOsml/l) with hypotonic extracellular solution (198 mOsml/l).
On the technique in general: Patch clamp records ionic current or voltage across a cell membrane.

Experiment [3] relates to microglial cells. Description: LPS-stimulated ATP release by microglial cells. Format: cell-based, rat. The conditions noted are these: 5 or 50 μM, LPS stimulation, FIG. 15B. As for the experimental part: (§1) Cortical microglia/astrocytes mechanically dissociated from decapitated postnatal P2-P4 rat pups (CD strain) were seeded on P75 flasks (1 brain per flask) and cultured at 37° C., 5% CO2 for 10-20 days using DMEM media supplemented with 10% FBS and 1% pen/strep. On Day 10, microglia were collected by gently shaking and washing and purify by passing through 20 μm cell strainer and centrifugation.
(§2) Re-suspended microglia were counted and plated onto poly-D-lysine coated 96-well culture plate at a density of 80,000 cells/well. Dislodged the remaining astrocytes (enriched astrocytes) and plated onto poly-D-lysine coated 96-well culture plate at a density of 50,000 cells/well. Overnighted microglia and/or astrocytes were treated with the PANX-1 blockers of the invention (5 or 50 μM), vehicle or control (carbenoxolone, CBX) and subjected to lipopolysaccharide stimulation. Extracellular ATP was assessed by multilabel plate reader Envision (ultrasensitive luminescence) using CellTiter-Glo (Promega) kit.

The test system of experiment [4] is astrocytes. Description: LPS-stimulated ATP release by astrocytes. Type of experiment: cell-based, rat. Particulars: 5 or 50 μM, LPS stimulation, FIG. 15A. As for the experimental part:
as §1, §2

For experiment [5], the system named is human cortical brain tissue slices. The conditions noted are these: cited from earlier work.
For experiment [6], the system named is mice. The conditions noted are these: administered before naloxone; cited from earlier work.
The test system of experiment [7] is mice. The conditions noted are these: EAE MS model in mice; cited from earlier work.
Experiment [8] has as its system Tg mice. Particulars: AD model, acute inhibition; cited from earlier work.
Experiment [9] deals with CRC cells. The conditions noted are these: cited from earlier work.

T1 sequence (Q96RD7 whole entry): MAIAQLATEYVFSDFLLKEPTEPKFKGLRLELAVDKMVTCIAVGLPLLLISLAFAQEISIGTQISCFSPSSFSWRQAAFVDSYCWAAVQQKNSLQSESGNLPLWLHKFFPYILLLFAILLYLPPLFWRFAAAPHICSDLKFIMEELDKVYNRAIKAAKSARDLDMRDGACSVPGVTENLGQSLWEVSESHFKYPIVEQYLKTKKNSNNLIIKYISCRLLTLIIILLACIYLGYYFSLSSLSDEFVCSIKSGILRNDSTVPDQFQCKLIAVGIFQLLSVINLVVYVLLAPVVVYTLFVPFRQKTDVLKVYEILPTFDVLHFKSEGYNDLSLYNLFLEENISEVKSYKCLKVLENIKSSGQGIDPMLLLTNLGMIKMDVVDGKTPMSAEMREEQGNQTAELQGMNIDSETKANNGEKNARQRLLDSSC

With `CC(=O)S[C@@H]1CC2=CC(=O)CC[C@]2(C)[C@H]2CC[C@@]3(C)[C@@H](CC[C@@]34CCC(=O)O4)[C@H]12` [Spirolactone, Spironolactone], the blood pressure entry in [1] was “acutely lowers blood pressure”. Besides, in [2] (at 3, 10, or 30 μM), the “inhibitory effect on PANX1” value is recorded as “inhibitory effect”.

For `CC1CCCC(n2cnc3c(N4CCCC4C)ncnc32)O1` (stereo not shown) [CMPD019], the “release of ATP by microglial cells” value in experiment [3] is given as “prevented”. Besides, the “release of ATP by astrocytes” value in [4] was “prevented”.

As for `N[C@@H]1[C@H]2CN(c3nc4c(cc3F)c(=O)c(C(=O)O)cn4-c3cc(-c4nnn[nH]4)ccc3Cl)C[C@@H]12` [CMPD 053], the “release of ATP by microglial cells” value in experiment [3] is recorded as “prevented”. Further, the “release of ATP by astrocytes” value in experiment [4] is reported as “prevented”.

As for `CCCN(CCC)S(=O)(=O)c1ccc(C(=O)O)cc1` [Probenecid], the ictal discharges entry in experiment [5] is reported as “blocked ictal discharges”. In experiment [6], the withdrawal behaviours entry was “markedly reduced”. For the same compound, the “clinical symptoms (disease score)” value in experiment [7] is on record as “reduced clinical symptoms”. In addition, the excitatory synaptic defects entry in experiment [8] is “significantly reduced excitatory synaptic defects”.

As for `OC(c1cc(C(F)(F)F)nc2c(C(F)(F)F)cccc12)C1CCCCN1` (stereo not shown) [mefloquine], the “growth arrest and apoptosis of CRC cells” value in experiment [9] (CRC cells harboring phosphorylated p65, in culture and in mice) was “induced growth arrest and apoptosis”. Also, in [9] (colorectal cancer cells), the NF-κB inhibition entry was “NF-κB inhibitor”. In addition, in experiment [5], the ictal discharges entry is “blocked ictal discharges”. The withdrawal behaviours entry in experiment [6] is “markedly reduced”.

For `CC1(C)[C@@H](OC(=O)CCC(=O)O)CC[C@]2(C)[C@H]3C(=O)C=C4[C@@H]5C[C@@](C)(C(=O)O)CC[C@]5(C)CC[C@@]4(C)[C@]3(C)CC[C@@H]12` [Carbenoxolone], the “inhibitory effect on PANX1” value in [2] (at 50 μM) is recorded as “inhibitory effect”.

Turning to `O=C(O)c1ccc2c(c1)c(C(=O)O)cn2CCCc1ccccc1` [CMPD043], the “release of ATP by microglial cells” value in experiment [3] is listed as “prevented”. In addition, the “release of ATP by astrocytes” value in experiment [4] was “prevented”.

On to `O=C(O)c1ccn2c(n1)nc1ccc(Cl)cc12` [CMPD054], for which, in experiment [3], the “release of ATP by microglial cells” value is reported as “prevented”. For the same compound, the “release of ATP by astrocytes” value in experiment [4] is listed as “prevented”.
